In US20050256003A1, “Novel herbicides” (priority 2002, published 2005):

Tested on: monocotyledonous and dicotyledonous test plants
Assay: Post-emergence herbicidal action
Assay type: in vivo
Set-up: key: 10=total damage; 0=no action; Ratings of from 10 to 7 (especially from 10 to 8) indicate good to very good herbicidal action
Conditions: about 18 days, rating 0-10
Description: Post-Emergence Herbicidal Action
In a greenhouse, monocotyledonous and dicotyledonous test plants are grown in standard soil in plastic pots and at the 4- to 6-leaf stage are sprayed with an aqueous suspension of the test compounds of formula I prepared from a 25% wettable powder (Example F3, b) according to WO 97/34485) or with an emulsion of the test compounds of formula I prepared from a 25% emulsifiable concentrate (Example F1, c) according to WO 97/34485), in a concentration corresponding to 125 g or 250 g of active ingredient/ha (500 litres of water/ha). The test plants are then grown on in a greenhouse under optimum conditions. After a test duration of about 18 days, the test is evaluated in accordance with a scale of nine ratings (10=total damage, 0=no action). Ratings of from 10 to 7 (especially from 10 to 8) indicate good to very good herbicidal action.

Compound	Post-emergence action, Amaranthus (250 g a.i./ha)	Post-emergence action, Chenopodium (250 g a.i./ha)	Post-emergence action, Echinochloa (250 g a.i./ha)	Post-emergence action, Euphorbia (250 g a.i./ha)	Post-emergence action, Ipomea (250 g a.i./ha)	Post-emergence action, Sinapis (250 g a.i./ha)	Post-emergence action, Stellaria (250 g a.i./ha)	Post-emergence action, Xanthium (250 g a.i./ha)	Post-emergence action, Amaranthus (125 g a.i./ha)	Post-emergence action, Chenopodium (125 g a.i./ha)	Post-emergence action, Echinochloa (125 g a.i./ha)	Post-emergence action, Euphorbia (125 g a.i./ha)	Post-emergence action, Ipomea (125 g a.i./ha)	Post-emergence action, Sinapis (125 g a.i./ha)	Post-emergence action, Stellaria (125 g a.i./ha)	Post-emergence action, Xanthium (125 g a.i./ha)
CCN1C(=O)N(Cc2nc(C(F)(F)F)ccc2C(=O)C2=C(O)C(C)(C)C(=O)C(C)(C)C2=O)C(=O)C1C (stereo not shown) [Compound A8.174]	8	9	0	7	8	7	7	7								
CSC(=O)n1c(C)cc(=O)n1Cc1nc(C(F)(F)F)ccc1C(=O)C1=C(O)C(C)(C)C(=O)C(C)(C)C1=O [Compound A8.062]	9	10	9	9	8	9	5	0								
Cc1nn(Cc2nc(C(F)(F)F)ccc2C(=O)C2=C(O)C(C)(C)CC(C)(C)C2=O)c(=O)o1 [Compound A7.008]	5	9	7	7	7	9	9	8								
CCOc1nn(Cc2nc(C(F)(F)F)ccc2C(=O)c2cnn(C)c2O)c(=O)n1CC [Compound B1.050]	9	9	4	9	7	9	7	8								
COc1nn(Cc2nc(C(F)(F)F)ccc2C(=O)c2cnn(C)c2O)c(=O)n1C1CC1 [Compound B1.039]	6	8	9	9	8	9	9	8								
CCOc1nn(Cc2nc(C(F)(F)F)ccc2C(=O)C2=C(O)CCCC2=O)c(=O)n1C1CC1 [Compound A1.049]	9	8	8	9	9	8	8	9								
Cn1c(C(F)(F)F)nn(Cc2nc(C(F)(F)F)ccc2C(=O)C2=C(O)CCCC2=O)c1=O [Compound A1.007]	9	10	8	4	9	8	7	9								
CCOc1nn(Cc2nc(C(F)(F)F)ccc2C(=O)c2cnn(C)c2O)c(=O)n1C1CC1 [Compound B1.056]	9	8	9	9	10	8	7	0								
O=C1CCCC(O)=C1C(=O)c1ccc(C(F)(F)F)nc1Cn1sc(Cl)cc1=O [Compound A1.115]	9	9	7	8	7	3	9	9								
CSC(=O)n1c(C)cc(=O)n1Cc1nc(C(F)(F)F)ccc1C(=O)c1cnn(C)c1O [Compound B1.062]	9	9	4	9	7	8	8	6								
CCOc1nn(Cc2nc(C(F)(F)F)ccc2C(=O)C2=C(O)CCCC2=O)c(=O)n1C [Compound A1.037]	9	9	4	8	9	8	8	9								
CCOc1nn(Cc2nc(C(F)(F)F)ccc2C(=O)C2=C(O)CCCC2=O)c(=O)n1C [Compound A1.043]	9	9	7	7	9	6	9	9								
COc1nn(Cc2nc(C(F)(F)F)ccc2C(=O)C2=C(O)C3CCC(C3)C2=O)c(=O)s1 (stereo not shown) [Compound A6.091]	8	9	9	8	8	8	9	9								
Cn1c(C(F)(F)F)nn(Cc2nc(C(F)(F)Cl)ccc2C(=O)C2=C(O)CCCC2=O)c1=O [Compound A1.001, 2-[6-(Chloro-difluoro-methyl)-3-(2-hydroxy-6-oxo-cyclohex-1-ene-carbonyl)-pyridin-2-ylmethyl]-4-methyl-5-trifluoromethyl-2.4-dihydro-[1.2.4]triazol-3-one]									8	9	4	4	8	8	8	8
CN1CCN(Cc2nc(C(F)(F)F)ccc2C(=O)C2=C(O)CCCC2=O)C1=S [Compound A1.202]	9	8	8	9	9	8	7	9								
CC(C)c1cn(-c2ccccc2)c(=O)n1Cc1nc(C(F)(F)F)ccc1C(=O)c1cnn(C)c1O [Compound B1.158]	7	8	4	7	8	7	7	5								
Cc1nn(Cc2nc(C(F)(F)F)ccc2C(=O)C2=C(O)C(C)(C)CC(C)(C)C2=O)c(=O)s1 [Compound A7.009]	4	9	7	7	7	8	7	7								
COc1nn(Cc2nc(C(F)(F)F)ccc2C(=O)C2=C(O)CCCC2=O)c(=O)n1C [Compound A1.019]	9	9	8	9	9	8	8	9								
COc1nn(Cc2nc(C(F)(F)F)ccc2C(=O)c2cnn(C)c2O)c(=O)n1C [Compound B1.004]	8	9	8	9	8	10	8	9								
CCN1C(=O)N(Cc2nc(C(F)(F)F)ccc2C(=O)C2=C(O)CCCC2=O)C(=O)C1C (racemic) [Compound A1.181]	9	8	4	8	8	5	7	8								
